{
  "source": "patent US20240376411A1",
  "about": "“IMPROVED PERFUME COMPOSITIONS COMPRISING SULFUR-CONTAINING PRO-FRAGRANCE COMPOUNDS” (FIRMENICH SA, priority 2021, published 2024)",
  "data": [
    {"assay": "Identification of perfumery raw materials that promote hydrogen sulfide formation (1:1 w/w mix, storage, smell)", "format": "physicochemical", "settings": "raw materials named in Example 2 as not promoting; test conditions not repeated there", "experimental": "In other words, each of the perfumery raw materials being present in the perfume composition is capable of inducing a hydrogen sulfide smell when being mixed individually in a 1:1 (w/w) ratio with the sulfur-containing pro-fragrance compound and being stored for 2 weeks at 50° C. Preferably, a hydrogen sulfide smell is induced when being mixed in a 1:1 (w/w) ratio with 3-(dodecylthio)-1-(2,6,6-trimethylcyclohex-3-en-1-yl) butan-1-one (HaloScent® D) and stored for 2 weeks at 50° C. Preferably, the mixing is carried out in a 10 mL glass jar. The perfumery raw materials may be used as such or may be dissolved in a solvent, for example at a concentration of from 10% to 50%.\nPerfumery raw materials that promote the formation of hydrogen sulfide from 3-(dodecylthio)-1-(2,6,6-trimethylcyclohex-3-en-1-yl) butan-1-one (HaloScent® D) have been identified by mixing individual perfumery raw materials with 3-(dodecylthio)-1-(2,6,6-trimethylcyclohex-3-en-1-yl) butan-1-one (HaloScent® D) in a 1:1 (w/w) ratio in a 10 mL glass jar and storing said mixture for 2 weeks at 50° C. In case a hydrogen sulfide smell (similar to rotten egg odor) could be perceived after 2 weeks, it has been concluded that the perfumery raw material promotes the formation of hydrogen sulfide from 3-(dodecylthio)-1-(2,6,6-trimethylcyclohex-3-en-1-yl) butan-1-one (HaloScent® D).", "values": [
      {"compound": "CC(=O)OC1CCC(C(C)(C)C)CC1", "note": "(stereo not shown) [4-(2-methyl-2-propanyl)cyclohexyl acetate]", "promotion of formation of hydrogen sulfide from HaloScent® D": "do not promote the formation of hydrogen sulfide"},
      {"compound": "C/C=C/c1ccc(O)c(OC)c1", "note": "[2-methoxy-4-[(1E)-1-propen-1-yl]phenol]", "promotion of formation of hydrogen sulfide from HaloScent® D": "do not promote the formation of hydrogen sulfide"},
      {"compound": "C=C(OC(C)=O)c1ccccc1", "note": "[1-phenylvinyl acetate]", "promotion of formation of hydrogen sulfide from HaloScent® D": "do not promote the formation of hydrogen sulfide"},
      {"compound": "O=C1CCCCCCCCCCCC(=O)OCCO1", "note": "[1,4-dioxacycloheptadecane-5,17-dione]", "promotion of formation of hydrogen sulfide from HaloScent® D": "do not promote the formation of hydrogen sulfide"},
      {"compound": "COC(Cc1ccccc1)OC", "note": "[(2,2-dimethoxyethyl)benzene]", "promotion of formation of hydrogen sulfide from HaloScent® D": "do not promote the formation of hydrogen sulfide"},
      {"compound": "allyl(⅔-methylbutoxy)acetate", "promotion of formation of hydrogen sulfide from HaloScent® D": "do not promote the formation of hydrogen sulfide"},
      {"compound": "C=CCc1ccc(O)c(OC)c1", "note": "[2-methoxy-4-(2-propen-1-yl) phenol]", "promotion of formation of hydrogen sulfide from HaloScent® D": "do not promote the formation of hydrogen sulfide"},
      {"compound": "CC/C=C\\CCOC(=O)OC", "note": "[(3Z)-hex-3-en-1-yl methyl carbonate]", "promotion of formation of hydrogen sulfide from HaloScent® D": "do not promote the formation of hydrogen sulfide"},
      {"compound": "CC(=O)c1ccccc1", "note": "[acetophenone]", "promotion of formation of hydrogen sulfide from HaloScent® D": "do not promote the formation of hydrogen sulfide"},
      {"compound": "CC/C=C\\CCOC(C)=O", "note": "[(Z)-3-hexenyl acetate]", "promotion of formation of hydrogen sulfide from HaloScent® D": "do not promote the formation of hydrogen sulfide"},
      {"compound": "COc1ccc(C)cc1", "note": "[1-methoxy-4-methylbenzene]", "promotion of formation of hydrogen sulfide from HaloScent® D": "do not promote the formation of hydrogen sulfide"},
      {"compound": "CC1C(C)(C)C2=C(C(=O)CCC2)C1(C)C", "note": "(stereo not shown) [1,1,2,3,3-pentamethyl-1,2,3,5,6,7-hexahydro-4H-inden-4-one]", "promotion of formation of hydrogen sulfide from HaloScent® D": "do not promote the formation of hydrogen sulfide"},
      {"compound": "COC(=O)c1ccccc1O", "note": "[methyl 2-hydroxybenzoate]", "promotion of formation of hydrogen sulfide from HaloScent® D": "do not promote the formation of hydrogen sulfide"},
      {"compound": "CC(=O)OC(C)(C)Cc1ccccc1", "note": "[1,1-dimethyl-2-phenylethyl acetate]", "promotion of formation of hydrogen sulfide from HaloScent® D": "do not promote the formation of hydrogen sulfide"},
      {"compound": "CCOC(=O)/C=C/c1ccccc1", "note": "[ethyl (E)-3-phenyl-2-propenoate]", "promotion of formation of hydrogen sulfide from HaloScent® D": "do not promote the formation of hydrogen sulfide"},
      {"compound": "CC(=O)OC1CC2CC1C1CC=CC21", "note": "(stereo not shown) [tricyclo[5.2.1.02,6]dec-¾-en-8-yl acetate]", "promotion of formation of hydrogen sulfide from HaloScent® D": "do not promote the formation of hydrogen sulfide"},
      {"compound": "c1ccc(Oc2ccccc2)cc1", "note": "[1,1′-oxydibenzene]", "promotion of formation of hydrogen sulfide from HaloScent® D": "do not promote the formation of hydrogen sulfide"},
      {"compound": "CCCC(=O)OCCC(C)C", "note": "[3-methylbutyl butyrate]", "promotion of formation of hydrogen sulfide from HaloScent® D": "do not promote the formation of hydrogen sulfide"},
      {"compound": "CC(C)CCCC(C)CCO", "note": "(racemic) [(+/−)-3,7-dimethyl-1-octanol]", "promotion of formation of hydrogen sulfide from HaloScent® D": "do not promote the formation of hydrogen sulfide"},
      {"compound": "CCCC(=O)OCC", "note": "[ethyl butanoate]", "promotion of formation of hydrogen sulfide from HaloScent® D": "do not promote the formation of hydrogen sulfide"},
      {"compound": "CCCCCCOC(C)=O", "note": "[hexyl acetate]", "promotion of formation of hydrogen sulfide from HaloScent® D": "do not promote the formation of hydrogen sulfide"},
      {"compound": "CC/C=C\\CCO", "note": "[(3Z)-3-hexen-1-ol]", "promotion of formation of hydrogen sulfide from HaloScent® D": "do not promote the formation of hydrogen sulfide"},
      {"compound": "C=CCOC(=O)COC1CCCCC1", "note": "[allyl (cyclohexyloxy)acetate]", "promotion of formation of hydrogen sulfide from HaloScent® D": "do not promote the formation of hydrogen sulfide"},
      {"compound": "C=CCOC(=O)CCCCC", "note": "[allyl hexanoate]", "promotion of formation of hydrogen sulfide from HaloScent® D": "do not promote the formation of hydrogen sulfide"},
      {"compound": "CC(=O)O[C@@H]1CC2CC[C@]1(C)C2(C)C", "note": "[(1R,2R)-1,7,7-trimethyl-bicyclo[2.2.1]hept-2-yl acetate]", "promotion of formation of hydrogen sulfide from HaloScent® D": "do not promote the formation of hydrogen sulfide"},
      {"compound": "CCCC(=O)OCC(C)CC", "note": "(stereo not shown) [2-methylbutyl butyrate]", "promotion of formation of hydrogen sulfide from HaloScent® D": "do not promote the formation of hydrogen sulfide"},
      {"compound": "CCCC(=O)OC(C)(C)Cc1ccccc1", "note": "[1,1-dimethyl-2-phenylethyl butanoate]", "promotion of formation of hydrogen sulfide from HaloScent® D": "do not promote the formation of hydrogen sulfide"}
    ]},
    {"assay": "logP above 4 (octanol-water partition coefficient)", "settings": "Yes/No", "values": [
      {"compound": "CCC(O)COC1CCCCC1C(C)(C)C", "note": "(racemic) [(+/−)-1-(2-tert-butyl-1-cyclohexyloxy)-2-butanol]", "logP > 4": "Yes"},
      {"compound": "C=CC(C)(O)CCC=C(C)C", "note": "(racemic) [(+/−)-3,7-dimethyl-1,6-octadien-3-ol]", "logP > 4": "No"},
      {"compound": "N#CC(=C1CCCCC1)c1ccccc1", "note": "[cyclohexylidene(phenyl)acetonitrile]", "logP > 4": "No"},
      {"compound": "CC(=O)c1ccc2ccccc2c1", "note": "[1-(2-naphthyl)ethanone]", "logP > 4": "No"},
      {"compound": "CCC(=CCC1CC=C(C)C1(C)C)CO", "note": "(racemic) [(+/−)-2-ethyl-4-(2,2,3-trimethyl-3-cyclopenten-1-yl)-2-buten-1-ol]", "logP > 4": "Yes"},
      {"compound": "3-methyl-4/5-cyclopentadecen-1-one", "logP > 4": "Yes"},
      {"compound": "CC/C=C\\CCOC(=O)c1ccccc1O", "note": "[(3Z)-3-hexen-1-yl salicylate]", "logP > 4": "Yes"},
      {"compound": "CC(CO)c1ccccc1", "note": "(racemic) [(+/−)-2-phenyl-1-propanol]", "logP > 4": "No"},
      {"compound": "c1ccc2[nH]ccc2c1", "note": "[Indole]", "logP > 4": "No"},
      {"compound": "C=CCOC(=O)CCC1CCCCC1", "note": "[allyl 3-cyclohexylpropanoate]", "logP > 4": "Yes"},
      {"compound": "CCOc1ccc2ccccc2c1", "note": "[2-ethoxynaphthalene]", "logP > 4": "No"},
      {"compound": "CC(=O)C1(C)CC2=C(CCCC2(C)C)CC1C", "note": "(stereo not shown) [1-(octahydro-2,3,8,8-tetramethyl-2-naphtalenyl)-1-ethanone]", "logP > 4": "Yes"},
      {"compound": "Cc1ccc2c(c1)CC(C)(CO)C2", "note": "(racemic) [(+/−)-2,5-dimethyl-2,3-dihydro-1H-inden-2-yl)methanol]", "logP > 4": "No"},
      {"compound": "C=CC(C)CCCC(C)(C)O", "note": "(racemic) [(+−)-2,6-dimethyl-7-octen-2-ol]", "logP > 4": "No"},
      {"compound": "CC1(C)CCC[C@]2(C)[C@H]3CCO[C@]3(C)CC[C@@H]12", "note": "(racemic) [(3aRS,5aSR,9aSR,9bRS)-3a,6,6,9a-tetramethyldodecahydronaphtho[2,1-b]furan]", "logP > 4": "Yes"},
      {"compound": "CCCCC[C@H]1C(=O)CC[C@@H]1CC(=O)OC", "note": "(racemic) [methyl 2-((1RS,2RS)-3-oxo-2-pentylcyclopentyl)acetate]", "logP > 4": "No"},
      {"compound": "OCCc1ccccc1", "note": "[2-phenylethanol]", "logP > 4": "No"},
      {"compound": "CCC(C)(O)CCCC(C)C", "note": "(racemic) [(+/−)-3,7-dimethyl-3-octanol]", "logP > 4": "No"},
      {"compound": "CC(=O)CCc1ccc(O)cc1", "note": "[4-(4-hydroxyphenyl)-2-butanone]", "logP > 4": "No"},
      {"compound": "CCC(=O)OCC(C)(C)O[C@@H](C)[C@@H]1CCCC(C)(C)C1", "note": "[(+)-2-{(1S)-1-[(1R)-3,3-dimethylcyclohexyl]ethoxy}-2-methylpropyl propionate]", "logP > 4": "Yes"},
      {"compound": "CC(C)=CCC[C@@H](C)CC#N", "note": "[(−)-(R)-3,7-dimethyl-6-octenenitrile]", "logP > 4": "No"},
      {"compound": "CC1=CCC(C(C)(C)O)CC1", "note": "(racemic) [(+/−)-alpha-terpineol]", "logP > 4": "No"},
      {"compound": "C=CC(C)(CCC=C(C)C)OC(C)=O", "note": "(racemic) [(+/−)-1,5-dimethyl-1-vinyl-4-hexenyl acetate]", "logP > 4": "Yes"},
      {"compound": "CC1=CC[C@H](/C=C/C(C)(C)C(C)O)C1(C)C", "note": "(stereo partly drawn) [(4E)-3,3-dimethyl-5-[(1R)-2,2,3-trimethyl-3-cyclopenten-1-yl]-4-penten-2-ol]", "logP > 4": "Yes"},
      {"compound": "tricyclo[5.2.1.0^2,6]dec-3/4-en-8-yl propanoate", "logP > 4": "Yes"}
    ]}
  ]
}
